The molecules below were run on test plant species (assay: Post-emergent herbicidal activity test (greenhouse, foliar spray, visual growth reduction)). Conditions: post-emergence, 336 h, ALOMY: blackgrass (Alopecurus myosuroides), 140 g ai/ha, 14 days after application, read-out: Visual Growth Reduction (%) 14 Days After Application, ALOMY.
Format: in vivo
Method: Post-emergent Test: Seeds or nutlets of the desired test plant species were planted in Sun Gro Metro-Mix® 360 planting mixture, which typically has a pH of 6.0 to 6.8 and an organic matter content of about 30 percent, in plastic pots with a surface area of 64 square centimeters. In some aspects, to ensure good germination and healthy plants, a fungicide treatment and/or other chemical or physical treatment was applied. The plants were grown for 7-21 d in a greenhouse with an approximate 15 h photoperiod which was maintained at 23-29° C. during the day and 22-28° C. during the night. Nutrients and water were added on a regular basis and supplemental lighting was provided with overhead metal halide 1000-Watt lamps as necessary. Plants were used for testing when they reached the first or second true leaf stage. A weighed amount, determined by the highest rate to be tested, of each test compound was placed in a 25 mL glass vial and was dissolved in 4 mL of a 97:3 v/v mixture of acetone and DMSO to obtain concentrated stock solutions. […] The concentrated stock solutions obtained were diluted with 20 mL of an aqueous mixture containing acetone, water, isopropyl alcohol, DMSO, […] crop oil concentrate, and X-77 surfactant in a 48.5:39:10:1.5:1.0:0.02 v/v ratio to obtain spray solutions containing the application rate. Compound requirements are based upon a 12 mL application volume at a rate of 187 liters per hectare (L/ha). Formulated compounds were applied to the plant material with an overhead Mandel track sprayer equipped with […] nozzles calibrated to deliver 187 L/ha over an application area of 0.64 square meters at a spray height of 18 inches (43 cm) above the average plant canopy height. Control plants were sprayed in the same manner with the solvent blank. The treated plants and control plants were placed in a greenhouse as described above and watered by subirrigation to prevent wash-off of the test compounds. After 14 d, the condition of the test plants as compared with that of the nontreated and control plants was determined visually and scored on a scale of 0 to 100 percent where 0 corresponds to no injury and 100 corresponds to complete control. In the reporting of the results, Table A: Percent Growth Reduction Conversion Table was used.

**Q.** For `COC(=O)c1cccc(-c2ccc(C(F)(F)F)cc2Cl)n1` [F55, Methyl 6-(2-chloro-4-(trifluoromethyl)phenyl)picolinate], which pest or weed control at 140 g/ha is on record?
**A.** 0 to 29%

**Q.** Which pest or weed control at 140 g/ha does the source give for `O=C(OCc1cccnc1)c1nc(-c2ccc(C(F)(F)F)cc2Cl)ccc1Cl` [F79, Pyridin-3-ylmethyl 3-chloro-6-(2-chloro-4-(trifluoromethyl)phenyl)picolinate] here?
**A.** 60 to 74%

Same assay, conditions: post-emergence, 336 h, AMARE: redroot pigweed (Amaranthus retroflexus), 140 g ai/ha, 14 days after application, read-out: Visual Growth Reduction (%) 14 Days After Application, AMARE

**Q.** For `COC(=O)c1cccc(-c2ccc(C(F)(F)F)cc2Cl)n1` [F55, Methyl 6-(2-chloro-4-(trifluoromethyl)phenyl)picolinate], which pest or weed control at 140 g/ha is on record?
**A.** 95 to 100%

**Q.** For `O=C(OCc1cccnc1)c1nc(-c2ccc(C(F)(F)F)cc2Cl)ccc1Cl` [F79, Pyridin-3-ylmethyl 3-chloro-6-(2-chloro-4-(trifluoromethyl)phenyl)picolinate], which pest or weed control at 140 g/ha is on record?
**A.** 95 to 100%

Same assay, conditions: post-emergence, 336 h, AVEFA: wild oat (Avena fatua), 140 g ai/ha, 14 days after application, read-out: Visual Growth Reduction (%) 14 Days After Application, AVEFA

**Q.** For `COC(=O)c1cccc(-c2ccc(C(F)(F)F)cc2Cl)n1` [F55, Methyl 6-(2-chloro-4-(trifluoromethyl)phenyl)picolinate], which pest or weed control at 140 g/ha is on record?
**A.** 0 to 29%

**Q.** Which pest or weed control at 140 g/ha does the source give for `O=C(OCc1cccnc1)c1nc(-c2ccc(C(F)(F)F)cc2Cl)ccc1Cl` [F79, Pyridin-3-ylmethyl 3-chloro-6-(2-chloro-4-(trifluoromethyl)phenyl)picolinate] here?
**A.** 75 to 84%

Same assay, conditions: post-emergence, 336 h, CHEAL: lambsquarters (Chenopodium album), 140 g ai/ha, 14 days after application, read-out: Visual Growth Reduction (%) 14 Days After Application, CHEAL

**Q.** With `COC(=O)c1cccc(-c2ccc(C(F)(F)F)cc2Cl)n1` [F55, Methyl 6-(2-chloro-4-(trifluoromethyl)phenyl)picolinate] as the molecule, how does the pest or weed control at 140 g/ha read?
**A.** 60 to 74%

**Q.** Which pest or weed control at 140 g/ha does the source give for `O=C(OCc1cccnc1)c1nc(-c2ccc(C(F)(F)F)cc2Cl)ccc1Cl` [F79, Pyridin-3-ylmethyl 3-chloro-6-(2-chloro-4-(trifluoromethyl)phenyl)picolinate] here?
**A.** 95 to 100%

Same assay, conditions: post-emergence, 336 h, CIRAR: canada thistle (Cirsium arvense), 140 g ai/ha, 14 days after application, read-out: Visual Growth Reduction (%) 14 Days After Application, CIRAR

**Q.** For `COC(=O)c1cccc(-c2ccc(C(F)(F)F)cc2Cl)n1` [F55, Methyl 6-(2-chloro-4-(trifluoromethyl)phenyl)picolinate], which pest or weed control at 140 g/ha is on record?
**A.** 0 to 29%

**Q.** For `O=C(OCc1cccnc1)c1nc(-c2ccc(C(F)(F)F)cc2Cl)ccc1Cl` [F79, Pyridin-3-ylmethyl 3-chloro-6-(2-chloro-4-(trifluoromethyl)phenyl)picolinate], which pest or weed control at 140 g/ha is on record?
**A.** 85 to 94%

Same assay, conditions: post-emergence, 336 h, CYPES: yellow nutsedge (Cyperus esculentus), 140 g ai/ha, 14 days after application, read-out: Visual Growth Reduction (%) 14 Days After Application, CYPES

**Q.** `COC(=O)c1cccc(-c2ccc(C(F)(F)F)cc2Cl)n1` [F55, Methyl 6-(2-chloro-4-(trifluoromethyl)phenyl)picolinate] was tested. Which pest or weed control at 140 g/ha did it give?
**A.** 0 to 29%

**Q.** For `O=C(OCc1cccnc1)c1nc(-c2ccc(C(F)(F)F)cc2Cl)ccc1Cl` [F79, Pyridin-3-ylmethyl 3-chloro-6-(2-chloro-4-(trifluoromethyl)phenyl)picolinate], which pest or weed control at 140 g/ha is on record?
**A.** 0 to 29%

Same assay, conditions: post-emergence, 336 h, DIGSA: crabgrass (Digitaria sanguinalis), 140 g ai/ha, 14 days after application, read-out: Visual Growth Reduction (%) 14 Days After Application, DIGSA

**Q.** With `COC(=O)c1cccc(-c2ccc(C(F)(F)F)cc2Cl)n1` [F55, Methyl 6-(2-chloro-4-(trifluoromethyl)phenyl)picolinate] as the molecule, how does the pest or weed control at 140 g/ha read?
**A.** 0 to 29%

**Q.** For `O=C(OCc1cccnc1)c1nc(-c2ccc(C(F)(F)F)cc2Cl)ccc1Cl` [F79, Pyridin-3-ylmethyl 3-chloro-6-(2-chloro-4-(trifluoromethyl)phenyl)picolinate], which pest or weed control at 140 g/ha is on record?
**A.** 95 to 100%

Same assay, conditions: post-emergence, 336 h, ECHCG: barnyardgrass (Echinochloa crus-galli), 140 g ai/ha, 14 days after application, read-out: Visual Growth Reduction (%) 14 Days After Application, ECHCG

**Q.** `COC(=O)c1cccc(-c2ccc(C(F)(F)F)cc2Cl)n1` [F55, Methyl 6-(2-chloro-4-(trifluoromethyl)phenyl)picolinate] was tested. Which pest or weed control at 140 g/ha did it give?
**A.** 0 to 29%

**Q.** With `O=C(OCc1cccnc1)c1nc(-c2ccc(C(F)(F)F)cc2Cl)ccc1Cl` [F79, Pyridin-3-ylmethyl 3-chloro-6-(2-chloro-4-(trifluoromethyl)phenyl)picolinate] as the molecule, how does the pest or weed control at 140 g/ha read?
**A.** 95 to 100%

Same assay, conditions: post-emergence, 336 h, IPOHE: ivy-leaf morning glory (Ipomoea hederacea), 140 g ai/ha, 14 days after application, read-out: Visual Growth Reduction (%) 14 Days After Application, IPOHE

**Q.** How did the pest or weed control at 140 g/ha turn out when `COC(=O)c1cccc(-c2ccc(C(F)(F)F)cc2Cl)n1` [F55, Methyl 6-(2-chloro-4-(trifluoromethyl)phenyl)picolinate] was run?
**A.** 30 to 44%

**Q.** `O=C(OCc1cccnc1)c1nc(-c2ccc(C(F)(F)F)cc2Cl)ccc1Cl` [F79, Pyridin-3-ylmethyl 3-chloro-6-(2-chloro-4-(trifluoromethyl)phenyl)picolinate] was tested. Which pest or weed control at 140 g/ha did it give?
**A.** 95 to 100%

Same assay, conditions: post-emergence, 336 h, KCHSC: kochia (Bassia scoparia), 140 g ai/ha, 14 days after application, read-out: Visual Growth Reduction (%) 14 Days After Application, KCHSC

**Q.** How did the pest or weed control at 140 g/ha turn out when `COC(=O)c1cccc(-c2ccc(C(F)(F)F)cc2Cl)n1` [F55, Methyl 6-(2-chloro-4-(trifluoromethyl)phenyl)picolinate] was run?
**A.** 0 to 29%

**Q.** For `O=C(OCc1cccnc1)c1nc(-c2ccc(C(F)(F)F)cc2Cl)ccc1Cl` [F79, Pyridin-3-ylmethyl 3-chloro-6-(2-chloro-4-(trifluoromethyl)phenyl)picolinate], which pest or weed control at 140 g/ha is on record?
**A.** 95 to 100%

Same assay, conditions: post-emergence, 336 h, ORYSA: rice (Oryza sativa), 140 g ai/ha, 14 days after application, read-out: Visual Growth Reduction (%) 14 Days After Application, ORYSA

**Q.** For `COC(=O)c1cccc(-c2ccc(C(F)(F)F)cc2Cl)n1` [F55, Methyl 6-(2-chloro-4-(trifluoromethyl)phenyl)picolinate], which pest or weed control at 140 g/ha is on record?
**A.** 0 to 29%

**Q.** How did the pest or weed control at 140 g/ha turn out when `O=C(OCc1cccnc1)c1nc(-c2ccc(C(F)(F)F)cc2Cl)ccc1Cl` [F79, Pyridin-3-ylmethyl 3-chloro-6-(2-chloro-4-(trifluoromethyl)phenyl)picolinate] was run?
**A.** 30 to 44%

Same assay, conditions: post-emergence, 336 h, SETFA: giant foxtail (Setaria faberi), 140 g ai/ha, 14 days after application, read-out: Visual Growth Reduction (%) 14 Days After Application, SETFA

**Q.** `COC(=O)c1cccc(-c2ccc(C(F)(F)F)cc2Cl)n1` [F55, Methyl 6-(2-chloro-4-(trifluoromethyl)phenyl)picolinate] was tested. Which pest or weed control at 140 g/ha did it give?
**A.** 0 to 29%

**Q.** `O=C(OCc1cccnc1)c1nc(-c2ccc(C(F)(F)F)cc2Cl)ccc1Cl` [F79, Pyridin-3-ylmethyl 3-chloro-6-(2-chloro-4-(trifluoromethyl)phenyl)picolinate] was tested. Which pest or weed control at 140 g/ha did it give?
**A.** 95 to 100%

Same assay, conditions: post-emergence, 336 h, SORVU: grain sorghum (Sorghum vulgare), 140 g ai/ha, 14 days after application, read-out: Visual Growth Reduction (%) 14 Days After Application, SORVU

**Q.** `COC(=O)c1cccc(-c2ccc(C(F)(F)F)cc2Cl)n1` [F55, Methyl 6-(2-chloro-4-(trifluoromethyl)phenyl)picolinate] was tested. Which pest or weed control at 140 g/ha did it give?
**A.** 0 to 29%

**Q.** For `O=C(OCc1cccnc1)c1nc(-c2ccc(C(F)(F)F)cc2Cl)ccc1Cl` [F79, Pyridin-3-ylmethyl 3-chloro-6-(2-chloro-4-(trifluoromethyl)phenyl)picolinate], which pest or weed control at 140 g/ha is on record?
**A.** 95 to 100%

Same assay, conditions: post-emergence, 336 h, STEME: common chickweed (Stellaria media), 140 g ai/ha, 14 days after application, read-out: Visual Growth Reduction (%) 14 Days After Application, STEME

**Q.** With `COC(=O)c1cccc(-c2ccc(C(F)(F)F)cc2Cl)n1` [F55, Methyl 6-(2-chloro-4-(trifluoromethyl)phenyl)picolinate] as the molecule, how does the pest or weed control at 140 g/ha read?
**A.** 0 to 29%

**Q.** With `O=C(OCc1cccnc1)c1nc(-c2ccc(C(F)(F)F)cc2Cl)ccc1Cl` [F79, Pyridin-3-ylmethyl 3-chloro-6-(2-chloro-4-(trifluoromethyl)phenyl)picolinate] as the molecule, how does the pest or weed control at 140 g/ha read?
**A.** 0 to 29%

Same assay, conditions: post-emergence, 336 h, TRZAS: wheat, spring (Triticum aestivum), 140 g ai/ha, 14 days after application, read-out: Visual Growth Reduction (%) 14 Days After Application, TRZAS

**Q.** `COC(=O)c1cccc(-c2ccc(C(F)(F)F)cc2Cl)n1` [F55, Methyl 6-(2-chloro-4-(trifluoromethyl)phenyl)picolinate] was tested. Which pest or weed control at 140 g/ha did it give?
**A.** 0 to 29%

**Q.** Which pest or weed control at 140 g/ha does the source give for `O=C(OCc1cccnc1)c1nc(-c2ccc(C(F)(F)F)cc2Cl)ccc1Cl` [F79, Pyridin-3-ylmethyl 3-chloro-6-(2-chloro-4-(trifluoromethyl)phenyl)picolinate] here?
**A.** 75 to 84%

— US20230017045A1, “PYRIDINE AND PYRIMIDINE CARBOXYLATE HERBICIDES AND METHODS OF USE THEREOF” (Dow AgroSciences LLC, priority 2017, published 2023)
